What was measured:
[1] = system: optically-induced postsynaptic currents (oPSC) in the NAc; assay: Whole-cell patch clamp of optically-induced postsynaptic currents in NAc slices; set-up: species or system mouse; settings: bath applied NBQX and APV together
Description: Mice (n=3 males) that were previously injected with ChR2 in the BLA were deeply anesthetized with isoflurane before decapitation and brain extraction. Coronal 250 μm thick sections were collected in ice cold 95% oxygen, 5% carbon dioxide-bubbled modified artificial cerebrospinal fluid (aCSF, 194 mM sucrose, 30 mM NaCl, 4.5 mM KCl, 1 mM MgCl2, 26 mM NaHCO3, 1.2 mM NaH2PO4, and 10 mM D-glucose) before incubating at 32° C. for 30 min in aCSF (124 mM NaCl, 4.5 mM KCl, 2 mM CaCl2), 1 mM MgCl2, 26 mM NaHCO3, 1.2 mM NaH2PO4, and 10 mM D-glucose). Slices were then stored at room temperature until recording.
Slices were hemisected, placed into a recording chamber, and perfused with temperature controlled aCSF (29-31° C.). NAc medium spiny neurons (MSNs) were visualized using infrared differential interference contrast light microscopy, Q-capture camera, and associated Pro 7 software. […] Optically evoked post synaptic currents (oPSC) were elicited by an optical fiber placed in the recording chamber that delivered 4 ms pulses of light (473 nm) every 20s for a total recording duration of 15 min. oPSCs were recorded using borosilicate glass pipettes (2-4 MΩ resistance) filled with Cesium Methanesulfonate internal solution (135 mM cesium methanesulfonate, 3 mM NaCl, 10 mM HEPES, 0.6 mM EGTA, 4 mM MgATP, 0.3 mM NaGTP, 5 mM QX-314C1, pH 7.2, 310 mOsm). […]

[2] = in vivo; cited from earlier work
[3] = Pharmacokinetic assessment of the DHED-acetate prodrug, IV and PO; type: in vivo, mouse
Description: FIGS. 29A-29B illustrate the pharmacokinetic assessment of the DHED-acetate prodrug. The concentration levels of the DHED-acetate prodrug (FIG. 29A) and DHED (FIG. 29B) were measured in mice (n=3) after IV and PO administration of 5 mg/kg solution dose of DHED-acetate prodrug.
Pharmacokinetic (PK) assessment of prodrugs. […] Generally, this PK study and analysis proceeds similarly to previous studies aimed at assessing the oral bioavailability of (2R,6R)-HNK. As in previous data with DHED (FIGS. 6A-6B), male C57BL/6J mice (n=6/time point) receive 200 μg of prodrug in 0.9% (20% cyclodextrin) administered either IV or PO. Plasma and brain are collected at 5 min, 15 min, 30 min, 1 h, and 4 h after administration. PK is performed using tandem liquid chromatography-mass spectrometry (LC-MS/MS) for quantification. Pharmacokinetic analysis is performed using Phoenix WinNonLin. Non-compartmental analysis is performed to determine the following parameters: C0 (Back-extrapolated concentration at time 0); Cmax (Maximum observed concentration); Tmax (time of maximum observed concentration); AUC0-t (Area under the concentration-time curve from hour 0 to the last measurable concentration, estimated by the linear trapezoidal rule). Statistical significance is calculated using the unpaired t-test or Mann-Whitney U test for comparing AUC values. Importantly, pharmacokinetic measurements observe both the level of the prodrug and free DHED moiety in the plasma. A critical comparison is measuring the DHED levels after administration of the prodrug compared to after administration of DHED itself. […] E2 levels are measured with liquid chromatography tandem mass spectrometry (LC-MS/MS) using standard methods. […] If levels of E2 are too low to be quantified via this measure, and to distinguish naturally-produced from DHED prodrug-produced E2, E2 levels can be quantitated at the femtomole level utilizing deuterium-labelled E2 standards and triple quadrupole mass spectrometry.

[4] = system: male mice; assay: Subthreshold social defeat stress (SSDS) followed by social interaction test; type: in vivo, mouse; settings: chronic treatment; gonadally intact male mice + SSDS
Description: (§1) Subthreshold social defeat stress: Retired CD1 breeders are singly housed and used as aggressors. Experimental mice are introduced to the home cage of an aggressor for 2 min to initiate the physical attack phase. Afterward, mice are transferred and housed on the opposite side of the aggressor, in the same cage separated by a perforated Plexiglass divider for 15 mins in order to maintain sensory contact. This process is repeated 3 times over a period of ~50 min.
(§2) Social Interaction: Mice are placed in a rectangular box (40 cm length×30 cm width×35 cm height; Stoelting, IL) divided into three compartments (two equal-sized end-chambers and a middle chamber) for five minute habituation phase (10-15 lux). After the habituation phase, two small wire cages are introduced into the two end chambers, one containing an unfamiliar, non-aggressive CD1 mouse and the other remaining empty. The amount of time mice spent sniffing each cage during the five-min test is assessed using CleverSys tracking software (CleverSys, Inc, Reston VA, USA).
(§3) For the chronic administration paradigms, silastic tubes (1.02 mm inner diameter×2.16 mm outer diameter) were filled with testosterone (10 mm) or 17β-Estradiol (E2; 1,3 and 10 mm; Sigma-Aldrich, St. Louis, MO, USA). Silastic implants were primed in 0.9% saline at 37° C. overnight prior to their subcutaneous use. Letrozole (1 mg/kg/day; Sigma-Aldrich, St. Louis, MO, USA) was dissolved in propylene glycol (MP Biomedicals, Santa Ana, CA, USA) and administered through ALZET minipumps (Model 1002, 0.25 μl/hour, 14 days; Cupertino, CA, USA). DHED (synthesized using previously described methods) was dissolved in 0.9% saline and administered through ALZET minipumps (Model 1002, 0.25 μl/hour, 14 days; Cupertino, CA, USA) at a dose of […]. Flutamide was administered through 1.5 mg slow-release subcutaneous pellets (Innovative Research of America, Sarasota, FL, USA). For acute administration, 17β-Estradiol (E2; 10 and […]) was dissolved in sesame oil (4 ml/kg, s.c.; Sigma-Aldrich, St. Louis, MO, USA).
(§4) Retired CD1 breeders were singly housed and used as aggressors. Two days prior to the start of the experiment, experimental mice were also singly housed. The stress procedure was performed using previously described methods. Briefly, experimental mice were introduced to the home cage of an aggressor for 2 min to initiate the physical attack phase. Afterward, mice were transferred and housed on the opposite side of the aggressor, in the same cage separated by a perforated Plexiglass divider for 15 mins in order to maintain sensory contact. This process was repeated 3 times over a period of ~50 min. Following the completion of the third cycle, mice were placed back in their home cages.
(§5) Acute E2 was administered 45 min prior to the initiation of stress or 5 min after the completion of stress. For the optogenetic stimulation, ChR2 and YFP-injected mice received a 4 Hz, 5 ms pulse width, 10-15 mW 470 nm light stimulation for 45 min prior to the initiation of stress. This stimulation paradigm was shown previously to increase synaptic transmission. The optogenetic set up consisted of an LED driver paired with a fiber-coupled LED light source attached to a bifurcated optogenetic path cable (400 μm, 0.49 NA; ThorLabs, Newton NJ, USA).
as §2, with “Social interaction was performed 24 hours following subthreshold social defeat or inescapable foot-shock stress. For the habituation phase, mice were” for “Social Interaction: Mice are”, “five minutes” for “five minute habituation phase”, “cages were” for “cages are”, “test was” for “test is”

[5] = system: male mice; assay: Subthreshold social defeat stress followed by female urine sniffing test (anhedonia); type: in vivo, mouse; settings: chronic treatment; gonadally intact male mice + SSDS
Description: as §1
Female Urine Preference Test: is performed 24 hours after the social interaction test as using previously described methods. The amount of time mice spent interacting with a cotton-tipped applicator soaked in either fresh male or female mouse urine during a total of 3 minutes is analyzed by an experimenter blind to the experimental groups.
as §3, §4, §5
FUST procedure was performed 24 hours after the social interaction test and 48 hours after stress. FUST was performed using previously described methods. The amount of time mice spent interacting with a cotton-tipped applicator soaked in either fresh male or female mouse urine during a total of 3 minutes was analyzed by an experimenter blind to the experimental groups.

[6] = Body, testis and seminal vesicle weights after hormonal treatments; type: in vivo, mouse; settings: chronic treatment
Description: as §3
Subcutaneous implantations were performed during the same time as the orchiectomies. The surgical area was thoroughly cleaned with Betadine solution (10% povidone-iodine surgical scrub) followed by 70% ethanol. A small, approximately 1-cm incision was made between the scapulae using a pair of small sterile surgical scissors. Hemostats were then inserted and spread laterally to the incision to create a cavity in the subcutaneous space in which ALZET mini-osmotic pumps or silastic implants were inserted for continuous drug/vehicle delivery. The skin was closed with suturing.

NS(=O)(=O)c1cccc2c1c([N+](=O)[O-])cc1nc(O)c(O)nc12 [NBQX]
oPSCs in NAc of ERβ-cre mice with ChR2 in the BLA [1]: blocked

CCCCCCCCCC(=O)O[C@H]1CC[C@H]2[C@@H]3CCC4=CC(=O)CC[C@]4(C)[C@H]3CC[C@]12C [Testosterone-decanoate]
oral bioavailability of testosterone [2]: substantially enhance the oral bioavailability

N[C@@H](CCCP(=O)(O)O)C(=O)O [APV]
oPSCs in NAc of ERβ-cre mice with ChR2 in the BLA [1]: blocked

CC(=O)O[C@H]1CC[C@H]2[C@@H]3CCC4=CC(=O)C=C[C@]4(O)[C@H]3CC[C@]12C [Example 1.1, (8S,9S,10S,13S,14S,17S)-10-hydroxy-13-methyl-3-oxo-6,7,8,9,10,11,12,13,14,15,16,17-dodecahydro-3H-cyclopenta[a]phenanthren-17-yl acetate]
concentration level of the prodrug after IV administration ([3]; mice (n=3), 5 mg/kg solution dose, IV): very rapidly metabolized | concentration level of the prodrug after PO administration ([3]; mice (n=3), 5 mg/kg solution dose, PO): cannot be detected | conversion of the prodrug into DHED ([3]; mice, 5 mg/kg, IV or PO): hydrolyzed into DHED

C[C@]12CC[C@H]3[C@@H](CCC4=CC(=O)CC[C@@]43C)[C@@H]1CC[C@@H]2OC(=O)[C@@H]1CCCN1C(=O)c1ccc(S(N)(=O)=O)cn1 [EC586]
oral bioavailability of testosterone [2]: substantially enhance the oral bioavailability

N#Cc1ccc(C(c2ccc(C#N)cc2)n2cncn2)cc1 [letrozole, Letrozole]
social interaction deficits following stress [4]: deficits in social interaction | anhedonia following stress [5]: induced a stress-susceptible phenotype | body weight [6]: increased body weight | seminal vesicle weight [6]: increased seminal vesicle weight | testis weight [6]: no difference in testes weight
